Patent publication US20100279997A1, “ANALGESIC THAT BINDS FILAMIN A” (priority 2009, published 2010)

What was measured:
[1] = Mouse hot-water tail-flick test; type: in vivo; conditions: for mean maximum antinociception / time of maximum antinociception (peak activity): oral, 56 mg/kg
Procedure: The mouse “tail flick” test was used to assay the relative antinociceptive activity of compositions containing a compound to be assayed. This assay was substantially that disclosed by Xie et al., 2005 J. Neurosci 25:409-416.
The mouse hot-water tail-flick test was performed by placing the distal third of the tail in a water bath maintained at 52° C. The latency until tail withdrawal from the bath was determined and compared among the treatments. A 10 second cutoff was used to avoid tissue damage. Data are converted to percentage of antinociception by the following formula: (response latency−baseline latency)/(cutoff−baseline latency)×100 to generate dose-response curves. […] Relative potency was determined as a ratio of the A50 values.
To assess tolerance to the antinociceptive effect, the compound was administered twice daily for 7 days at an A90 dose (dose that results in a 90% antinociceptive effect in the 52° C. warm-water tail-flick test), and the tail-flick test was performed daily after the a.m. dose.

[2] = target: Bn-VAKGL pentapeptide of filamin A (FLNA) (Homo sapiens, UniProt P21333); experiment: FITC-NLX-based FLNA screening assay (FLNA peptide binding assay)
Procedure: The final assay volume is 100 μl.
Compounds are tested in triplicate or quadruplicate.

μ opiate receptor (MOR) = target: T1, μ opiate receptor (MOR) (Rattus norvegicus, UniProt P33535); experiment: MOR agonist activity, [35S]GTPγS binding assay using striatal membranes; type: biochemical; conditions: for [35S]GTPγS binding to Gαo, FLNA-binding compound as agonist 0.1 μM: 0.1 μM compound; for [35S]GTPγS binding to Gαo, FLNA-binding compound as agonist 0.1 μM / [35S]GTPγS binding to Gαo, FLNA-binding compound as agonist 1 μM: striatal membranes; for [35S]GTPγS binding to Gαo, FLNA-binding compound as agonist 1 μM + BFNA: 1 μM compound + 1 μM β-funaltrexamine; for [35S]GTPγS binding to Gαo, FLNA-binding compound as agonist 1 μM: 1 μM compound
T1 construct: from tissue; host or cells: striatal tissue (membrane preparation)
T1 sequence (P33535 whole entry): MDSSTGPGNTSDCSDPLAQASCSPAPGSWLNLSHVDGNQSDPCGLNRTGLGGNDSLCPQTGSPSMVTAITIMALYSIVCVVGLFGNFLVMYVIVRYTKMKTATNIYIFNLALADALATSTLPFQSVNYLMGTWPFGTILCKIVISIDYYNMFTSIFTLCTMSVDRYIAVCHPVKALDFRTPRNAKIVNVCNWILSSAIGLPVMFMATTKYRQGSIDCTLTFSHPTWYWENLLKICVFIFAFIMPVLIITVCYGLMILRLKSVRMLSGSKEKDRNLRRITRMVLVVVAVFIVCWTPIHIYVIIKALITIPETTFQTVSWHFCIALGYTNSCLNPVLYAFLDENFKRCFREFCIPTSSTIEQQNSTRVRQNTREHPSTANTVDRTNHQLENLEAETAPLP
Procedure: To assess the μ opiate receptor (MOR) agonist activity of positive compounds from the FLNA screening, compounds were tested in a [^35S]GTPγS binding assay using striatal membranes.
Striatal tissue was homogenized in 10 volumes of ice cold 25 mM HEPES buffer, pH 7.4, which contained 1 mM EGTA, 100 mM sucrose, 50 μg/ml leupeptin, 0.04 mM PMSF, 2 μg/ml soybean trypsin inhibitor and 0.2% 2-mercaptoethanol. The homogenates were centrifuged at 800×g for 5 minutes and the supernatants were centrifuged at 49,000×g for 20 minutes. The resulting pellets were suspended in 10 volume of reaction buffer, which contained 25 mM HEPES, pH 7.5, 100 mM NaCl, 50 μg/ml leupeptin, 2 μg/ml soybean trypsin inhibitor, 0.04 mM PMSF and 0.02% […].
The resultant striatal membrane preparation (200 μg) was admixed and maintained (incubated) at 30° C. for 5 minutes in reaction buffer as above that additionally contained 1 mM MgCl2 and 0.5 nM [^35S]GTPγS (0.1 μCi/assay, PerkinElmer Life and Analytical Sciences) in a total volume of 250 μl and continued for 5 minutes in the absence or presence of 0.1-10 μM of an assayed compound of interest. The reaction was terminated by dilution with 750 μl of ice-cold reaction buffer that contained 20 mM MgCl2 and 1 mM EGTA and immediate centrifugation at 16,000×g for 5 minutes.
The resulting pellet was solubilized by sonicating for 10 seconds in 0.5 ml of immunoprecipitation buffer containing 0.5% digitonin, 0.2% sodium cholate and 0.5% NP-40. Normal rabbit serum (1 μl) was added to 1 ml of lysate and incubated at 25° C. for 30 minutes. Nonspecific immune complexes were removed by incubation with 25 μl of protein A/G-conjugated agarose beads at 25° C. for 30 minutes followed by centrifugation at 5,000×g at 4° C. for 5 minutes. The supernatant was divided and separately incubated at 25° C. for 30 minutes with antibodies raised against Gao proteins (1:1,000 dilutions).
The immunocomplexes so formed were collected by incubation at 25° C. for 30 minutes with 40 μl of agarose-conjugated protein A/G beads and centrifugation at 5,000×g at 4° C. for 5 minutes. The pellet was washed and suspended in buffer containing 50 mM Tris-HCl, pH 8.0, and 1% NP-40. The radioactivity in the suspension was determined by liquid scintillation spectrometry. […] DAMGO (H-Tyr-D-Ala-Gly-N-MePhe-Gly-OH; 1 or 10 μM) was used as a positive control.

[3] = system: MOR coupling to Gαs/olf and Gαo; experiment: Relative Gs/Go switching, MOR-G protein coupling in organotypic striatal slice cultures; type: cell-based; conditions: rat striatal slices
Procedure: Striatal slices ([…]) were prepared using a McIlwain tissue chopper (Mickle Laboratory Engineering Co., Surrey, UK). Slices were carefully transferred to sterile, porous culture inserts (0.4 μm, Millicell-CM) using the rear end of a glass Pasteur pipette. Each culture insert unit contained 2 slices and was placed into one well of the 12-well culture tray. […] The pH value was adjusted to 7.2 with HEPES buffer.
Cultures were first incubated for 2 days to minimize the impact of injury from slice preparation. Incubator settings throughout the experiment were 36° C. with 5% CO2.
Slices were returned to culture medium with normal serum after each drug exposure. Tissues were harvested 16 hours after the last drug exposure by centrifugation.
For determination of MOR-G protein coupling, slices were homogenized to generate synaptic membranes. […] Following centrifugation, striatal membrane lysates were immunoprecipitated with immobilized anti-Gαs/olf or -Gαo conjugated with immobilized protein G-agarose beads. The level of MOR in anti-Gαs/olf or -Gαo immunoprecipitates was determined by Western blotting using specific anti-MOR antibodies.

filamin A = filamin A (Homo sapiens, UniProt P21333); conditions: Wang et al, 2008 PLoS One 3:e1554; read-out: affinity of binding to filamin A; cited from earlier work
Sequence of filamin A (P21333 whole entry): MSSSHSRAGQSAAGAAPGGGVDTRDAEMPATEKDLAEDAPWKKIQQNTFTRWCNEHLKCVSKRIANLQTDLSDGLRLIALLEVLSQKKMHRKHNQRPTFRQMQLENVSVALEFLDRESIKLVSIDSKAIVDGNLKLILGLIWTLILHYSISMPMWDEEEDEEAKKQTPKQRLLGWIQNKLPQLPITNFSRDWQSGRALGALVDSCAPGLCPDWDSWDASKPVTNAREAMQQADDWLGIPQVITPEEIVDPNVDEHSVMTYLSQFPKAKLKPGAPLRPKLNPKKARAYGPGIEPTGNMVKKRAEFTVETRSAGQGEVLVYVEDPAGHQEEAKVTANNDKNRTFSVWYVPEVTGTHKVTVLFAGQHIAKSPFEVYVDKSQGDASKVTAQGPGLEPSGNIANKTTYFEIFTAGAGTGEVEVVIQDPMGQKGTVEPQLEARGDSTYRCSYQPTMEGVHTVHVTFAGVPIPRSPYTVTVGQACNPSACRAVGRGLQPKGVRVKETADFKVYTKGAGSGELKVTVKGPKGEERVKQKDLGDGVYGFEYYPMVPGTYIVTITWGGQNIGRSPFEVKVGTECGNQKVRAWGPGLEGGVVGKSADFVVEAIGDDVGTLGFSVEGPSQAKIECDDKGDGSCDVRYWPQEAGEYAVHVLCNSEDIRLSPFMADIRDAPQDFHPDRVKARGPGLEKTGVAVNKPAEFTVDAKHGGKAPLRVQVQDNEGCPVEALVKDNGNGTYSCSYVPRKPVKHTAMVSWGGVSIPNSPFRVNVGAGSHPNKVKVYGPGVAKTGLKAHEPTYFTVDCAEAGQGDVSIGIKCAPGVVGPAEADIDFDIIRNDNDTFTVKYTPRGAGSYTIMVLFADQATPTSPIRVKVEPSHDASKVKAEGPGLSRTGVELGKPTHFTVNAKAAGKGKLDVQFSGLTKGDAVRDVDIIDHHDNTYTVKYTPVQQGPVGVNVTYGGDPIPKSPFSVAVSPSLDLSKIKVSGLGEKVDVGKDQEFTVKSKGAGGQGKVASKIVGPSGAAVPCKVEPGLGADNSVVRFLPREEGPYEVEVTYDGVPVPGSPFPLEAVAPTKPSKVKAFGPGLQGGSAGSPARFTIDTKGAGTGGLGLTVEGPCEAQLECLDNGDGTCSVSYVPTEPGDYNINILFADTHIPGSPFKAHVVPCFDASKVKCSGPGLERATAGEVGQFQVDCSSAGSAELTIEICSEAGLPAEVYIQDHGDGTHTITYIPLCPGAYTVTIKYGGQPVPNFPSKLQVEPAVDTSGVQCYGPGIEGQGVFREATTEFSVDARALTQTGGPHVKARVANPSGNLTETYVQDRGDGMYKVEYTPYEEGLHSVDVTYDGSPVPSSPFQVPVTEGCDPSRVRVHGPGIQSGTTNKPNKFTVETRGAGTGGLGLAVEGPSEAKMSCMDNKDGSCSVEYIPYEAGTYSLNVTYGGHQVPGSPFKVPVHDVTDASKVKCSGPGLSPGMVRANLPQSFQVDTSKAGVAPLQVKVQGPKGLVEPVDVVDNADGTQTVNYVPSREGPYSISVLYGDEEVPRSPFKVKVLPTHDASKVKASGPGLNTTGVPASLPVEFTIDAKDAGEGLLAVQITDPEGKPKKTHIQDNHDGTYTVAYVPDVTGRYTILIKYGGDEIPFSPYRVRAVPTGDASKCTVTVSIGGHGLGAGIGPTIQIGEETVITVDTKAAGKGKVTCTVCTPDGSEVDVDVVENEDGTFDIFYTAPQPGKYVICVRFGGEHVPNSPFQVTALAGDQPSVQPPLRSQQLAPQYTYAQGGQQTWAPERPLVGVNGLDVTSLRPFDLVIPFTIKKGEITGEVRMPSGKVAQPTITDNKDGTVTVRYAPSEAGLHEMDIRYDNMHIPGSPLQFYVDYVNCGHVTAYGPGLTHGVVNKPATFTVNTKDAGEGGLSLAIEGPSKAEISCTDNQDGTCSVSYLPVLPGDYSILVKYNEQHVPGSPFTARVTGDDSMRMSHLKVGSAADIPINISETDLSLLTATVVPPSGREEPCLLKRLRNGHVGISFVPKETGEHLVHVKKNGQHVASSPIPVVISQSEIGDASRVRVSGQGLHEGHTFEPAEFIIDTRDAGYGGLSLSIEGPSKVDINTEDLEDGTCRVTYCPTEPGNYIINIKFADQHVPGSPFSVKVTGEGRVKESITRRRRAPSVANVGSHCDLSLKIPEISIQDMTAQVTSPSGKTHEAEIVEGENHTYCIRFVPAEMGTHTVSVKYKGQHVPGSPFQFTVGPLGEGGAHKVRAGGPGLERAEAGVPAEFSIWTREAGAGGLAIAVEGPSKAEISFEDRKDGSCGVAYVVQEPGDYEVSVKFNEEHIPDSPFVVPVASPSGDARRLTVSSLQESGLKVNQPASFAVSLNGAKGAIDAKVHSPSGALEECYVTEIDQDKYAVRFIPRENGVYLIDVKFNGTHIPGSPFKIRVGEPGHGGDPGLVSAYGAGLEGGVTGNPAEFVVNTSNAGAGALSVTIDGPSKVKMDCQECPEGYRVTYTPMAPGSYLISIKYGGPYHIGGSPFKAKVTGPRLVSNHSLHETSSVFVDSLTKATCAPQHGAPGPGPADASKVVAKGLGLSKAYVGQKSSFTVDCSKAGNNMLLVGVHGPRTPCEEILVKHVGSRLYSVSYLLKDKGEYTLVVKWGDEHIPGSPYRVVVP

## CC1CCC(C(C)C)C(OCC(O)CN2CCc3ccccc32)C1 (centres unmarked) [Compound A0065]
[1]
  mean maximum antinociception: about 25%
[2]; read-out: Percent inhibition of FITC-NLX binding, 0.01 μM
  inhibition at 0.01 µM: 38.7%
[2]; read-out: Percent inhibition of FITC-NLX binding, 0.1 μM
  inhibition at 0.1 µM: 50%
[2]; read-out: Percent inhibition of FITC-NLX binding, 1 μM
  inhibition at 1 µM: 50.8%
μ opiate receptor (MOR)
  [35S]GTPγS binding to Gαo, FLNA-binding compound as agonist 0.1 μM: 197.6%
  [35S]GTPγS binding to Gαo, FLNA-binding compound as agonist 1 μM + BFNA: 44.9%
  [35S]GTPγS binding to Gαo, FLNA-binding compound as agonist 1 μM: 266.8%
μ opiate receptor (MOR); relative to DAMGO + BFNA
  % DAMGO + BFNA: 112.5%
μ opiate receptor (MOR); relative to DAMGO, 0.1 μM
  % DAMGO (0.1 μM): 126.6%
μ opiate receptor (MOR); relative to DAMGO, 1 μM
  % DAMGO (1 μM): 115.7%

## CC1CCC(C(C)C)C(OCC(O)CN2CC(C)OC(C)C2)C1 (centres unmarked) [Compound 3333]
μ opiate receptor (MOR); listed as A3333
  [35S]GTPγS binding to Gαo, FLNA-binding compound as agonist 0.1 μM: 170.7%
  [35S]GTPγS binding to Gαo, FLNA-binding compound as agonist 1 μM + BFNA: 65.9%
  [35S]GTPγS binding to Gαo, FLNA-binding compound as agonist 1 μM: 328.3%
[3]; 10 μM
  Go (MOR in anti-Gαo immunoprecipitate), average: 1426.3
  Gs/Go-Coupled Ratio, average: 0.761
  Gs/olf (MOR in anti-Gαs/olf immunoprecipitate), average: 1079.0
[3]; 100 μM
  Go (MOR in anti-Gαo immunoprecipitate), average: 1418.8
  Gs/Go-Coupled Ratio, average: 0.756
  Gs/olf (MOR in anti-Gαs/olf immunoprecipitate), average: 1064.8

## CN1CC[C@]23c4c5ccc(O)c4O[C@H]2[C@@H](O)C=C[C@H]3[C@H]1C5 [morphine, reference compound]
[1]
  mean maximum antinociception: about 43%
  time of maximum antinociception (peak activity): about 20 minutes
[1]; listed as Morphine
  time of maximum antinociception (peak activity): twenty
[1]; orally administered, 52° C. tail flick
  A50 (dose that resulted in a 50% antinociceptive effect), with 95% CI: 61.8 (52.4-72.9) mg/kg

## O=C1CC[C@@]2(O)[C@H]3Cc4ccc(O)c5c4[C@@]2(CCN3CC2CC2)[C@H]1O5 [NTX, naltrexone]
Filamin A
  Kd: ~4 pM

## CC1CCCC(OCC(O)CN2CC(C)OC(C)C2)C1 (centres unmarked) [Compound A0021]
[1]
  mean maximum antinociception: about 25%
μ opiate receptor (MOR)
  [35S]GTPγS binding to Gαo, FLNA-binding compound as agonist 0.1 μM: 133.3%
  [35S]GTPγS binding to Gαo, FLNA-binding compound as agonist 1 μM + BFNA: 12.1%
  [35S]GTPγS binding to Gαo, FLNA-binding compound as agonist 1 μM: 275.3%

## CC1CN(CC(O)COc2cccc(F)c2)CC(C)O1 (centres unmarked) [Compound A0049]
[1]
  mean maximum antinociception: about 45%
μ opiate receptor (MOR)
  [35S]GTPγS binding to Gαo, FLNA-binding compound as agonist 0.1 μM: 232.3%
  [35S]GTPγS binding to Gαo, FLNA-binding compound as agonist 1 μM + BFNA: 107.1%
  [35S]GTPγS binding to Gαo, FLNA-binding compound as agonist 1 μM: 370.3%
